This note sets out measurements from ChEMBL document CHEMBL1201862, “PubChem BioAssay data set” (2004).

Some test systems named below: A549; COLO 205; EKVX; HCC 2998; HCT-116; HOP-62; K562; NCI-H23; NCI-H460; OVCAR-4; RPMI-8226; RXF 393; SK-MEL-28; SK-MEL-5; SN12C; SNB-75; SW-620; UACC-257; UO-31; HCT-15.
Experiment in all cases: DTP human tumour cell line panel, 48 h

Each structure is given as a SMILES string.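 Results reflect a 48-hour exposure of cells in 96-well plates to compound at five concentrations. GI50 = concentration required for 50% inhibition of growth.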 Calls of active or inactive are those of the source. No stated cut-off is given here; in the data, active = GI50 up to about 1.1 µM and inactive = higher.

As a reminder, the GI50 is the concentration that inhibits growth by half. Turning to `O=C(O)/C=C/c1c[nH]cn1`, the GI50 is > 500 µM (inactive) in the test on A549; > 500 µM (inactive) in the test on COLO 205; > 500 µM (inactive) in the test with EKVX; > 500 µM (inactive) in the test with HCC 2998; > 500 µM (inactive) in the test with HCT-116; 493 µM (inactive) in the test with HOP-62. Also, the GI50 in the test with K562, in the test with NCI-H23, with NCI-H460, with OVCAR-4, in the test with RPMI-8226 and in the test with RXF 393 was > 500 µM (inactive) in each case. The GI50 is > 500 µM (inactive) in the test with SK-MEL-28; > 232 µM (inactive) with SK-MEL-5; > 500 µM (inactive) in the test on SN12C; > 500 µM (inactive) with SNB-75; > 500 µM (inactive) in the test with SW-620; > 500 µM (inactive) with UACC-257. The GI50 in the test with UO-31 was > 500 µM (inactive).
Consider `CN1C[C@H]2[C@@H](C1=O)[C@H](c1ccccc1)ON2C`, for which the GI50 was > 100 µM (inactive) in the test on A549; > 100 µM (inactive) with COLO 205; > 100 µM (inactive) in the test on HCC 2998; > 100 µM (inactive) in the test on HCT-116; more than 100 µM in the test on HCT-15; > 100 µM (inactive) in the test on HOP-62. The GI50 in the test on K562, in the test on NCI-H23, in the test with NCI-H460, in the test with OVCAR-4, in the test with RPMI-8226 and in the test on SK-MEL-28 was > 100 µM (inactive) each time. For the same compound, the GI50 in the test on SK-MEL-5, with SN12C, in the test with SNB-75, with SW-620, in the test with UACC-257 and in the test on UO-31 was > 100 µM (inactive) in each case.
Consider `CN(CCO)CCC1COc2ccccc2O1` (stereo not drawn), for which the GI50 in the test on A549 was > 10 µM (inactive); in the test with COLO 205, > 10 µM (inactive); in the test with EKVX, > 10 µM (inactive); in the test on HCC 2998, > 10 µM (inactive); with HCT-116, > 10 µM (inactive); in the test with HCT-15 it was more than 10 µM. Moreover, the GI50 with HOP-62, in the test with K562, in the test on NCI-H23, with NCI-H460, with OVCAR-4 and in the test on RPMI-8226 was > 10 µM (inactive) throughout. Besides, the GI50 in the test on RXF 393 is 7.98 µM (inactive); in the test on SK-MEL-28 it was > 10 µM (inactive); with SK-MEL-5, > 10 µM (inactive); with SN12C it was > 10 µM (inactive); in the test with SNB-75, > 10 µM (inactive); in the test with SW-620, > 10 µM (inactive). For the same compound, in the test on UO-31, the GI50 is > 10 µM (inactive).
As for `Cc1nnc2sc(N/N=C/c3ccccc3)nn12`, the GI50 in the test with A549 is > 100 µM (inactive); with COLO 205, > 100 µM (inactive); in the test with EKVX it was > 100 µM (inactive); with HCT-116, > 100 µM (inactive); with HCT-15, more than 100 µM; in the test on HOP-62, > 100 µM (inactive). Further, the GI50 with K562, in the test with NCI-H23, in the test on NCI-H460, with OVCAR-4, in the test with RPMI-8226 and in the test on RXF 393 was > 100 µM (inactive) in each case. The GI50 in the test with SK-MEL-28, in the test on SK-MEL-5, with SN12C, with SNB-75, with SW-620 and in the test on UACC-257 was > 100 µM (inactive) in each case. In addition, the GI50 in the test with UO-31 is > 100 µM (inactive).
`CC1(C)CNC(=O)C2(/C=N/C(C)(C)CNC(=O)C3(/C=N/1)CCCO3)CCCO2` (stereo not drawn): the GI50 in the test on A549 was > 10 µM (inactive); in the test with COLO 205, > 10 µM (inactive); in the test with EKVX, > 10 µM (inactive); with HCC 2998, > 10 µM (inactive); in the test on HCT-116 it was > 10 µM (inactive); in the test with HCT-15 it was more than 10 µM. Moreover, the GI50 with HOP-62, in the test with K562, in the test with NCI-H23, with OVCAR-4, in the test on RPMI-8226 and in the test with RXF 393 was > 10 µM (inactive) throughout. Also, the GI50 with SK-MEL-28, in the test on SK-MEL-5, in the test on SN12C, with SNB-75, in the test on SW-620 and with UACC-257 was > 10 µM (inactive) throughout.
As to `CC(C)(C)[Si](C)(C)OCC1CCC(n2cnc3c(N)ncnc32)O1` (stereo not drawn), the GI50 in the test on COLO 205 was > 100 µM (inactive); in the test on HCT-116 it was 39.2 µM (inactive); in the test on HCT-15 it was 72.1 µM; in the test on HOP-62, 95.7 µM (inactive); in the test on K562, 3.45 µM (inactive); in the test on NCI-H23, 30.6 µM (inactive). Besides, the GI50 is 54.7 µM (inactive) with NCI-H460; > 100 µM (inactive) in the test on OVCAR-4; 42 µM (inactive) in the test on RPMI-8226; 84.1 µM (inactive) in the test on RXF 393; 72.8 µM (inactive) in the test with SK-MEL-28; 17.1 µM (inactive) in the test with SK-MEL-5. In addition, the GI50 in the test on SN12C was 69.2 µM (inactive); in the test on SNB-75 it was 67.8 µM (inactive); with SW-620, > 100 µM (inactive); with UACC-257, 33.7 µM (inactive); in the test with UO-31, 44.4 µM (inactive).
Take `CCCC(=O)OC[n+]1ccc2c(C)c3[nH]c4ccc(OC)cc4c3c(C)c2c1`: the GI50 in the test with A549 is 0.306 µM (active); in the test on COLO 205, 0.427 µM (active); in the test on EKVX it was 1.01 µM (active); in the test on HCC 2998 it was 0.482 µM (active); in the test with HCT-116 it was 0.0552 µM (active); in the test on HCT-15 it was 0.288 µM. For the same compound, the GI50 with HOP-62 is 0.714 µM (active); in the test on NCI-H23, 0.347 µM (active); with NCI-H460, 0.0481 µM (active); in the test with OVCAR-4, 1.03 µM (active); with RPMI-8226 it was 0.0296 µM (active); in the test with RXF 393, 1.09 µM (active). Moreover, the GI50 in the test with SK-MEL-28 is 0.74 µM (active); in the test on SK-MEL-5, 1.19 µM (inactive); with SN12C, 0.222 µM (active); in the test with SNB-75, 1.16 µM (inactive); with SW-620, 0.0692 µM (active); with UACC-257, 2.08 µM (inactive). For the same compound, the GI50 in the test with UO-31 was 1.74 µM (inactive).
With `COc1c(Cl)cc(S(=O)O)cc1Cl`, the GI50 in the test with EKVX, in the test on HCC 2998, in the test on HCT-116, with HOP-62, in the test on K562 and with NCI-H23 was > 100 µM (inactive) throughout. Also, the GI50 in the test with NCI-H460, with OVCAR-4, with RXF 393, in the test on SK-MEL-28, in the test on SN12C and with SNB-75 was > 100 µM (inactive) each time. Also, the GI50 with UACC-257 and in the test with UO-31 was > 100 µM (inactive) throughout.
Take `COc1cc(C2c3[nH]c4ccccc4c3[C@@H](Nc3ccc(F)cc3)[C@H]3COC(=O)N23)cc(OC)c1O` (stereo partly drawn): the GI50 in the test with A549 is 0.465 µM (active); in the test with EKVX it was 2.55 µM (inactive); in the test with HCC 2998, 1.58 µM (inactive); in the test with HCT-116 it was 1.89 µM (inactive); with HCT-15, 1.66 µM; in the test on HOP-62 it was 1.01 µM (active). Also, the GI50 in the test on K562 is 1.45 µM (inactive); in the test on NCI-H23, 1.42 µM (inactive); in the test on NCI-H460, 0.957 µM (active); in the test on OVCAR-4, 2.55 µM (inactive); in the test with SK-MEL-28, 2.01 µM (inactive); with SK-MEL-5, 1.14 µM (inactive). Also, the GI50 is 1.35 µM (inactive) in the test on SN12C; 1.69 µM (inactive) with SNB-75; 1.23 µM (inactive) in the test on SW-620; 3.77 µM (inactive) in the test with UACC-257; 1.09 µM (active) in the test with UO-31.
Regarding `C[C@H]1[C@@H]2C[C@@H]3O[C@@]34[C@H]3CCC5Cc6nc7c(nc6C[C@@]5(C)[C@]3(O)CC(=O)[C@@]24CO[C@]12OC(C)(C)C[C@@H]2O)CC1CC[C@@H]2C3=C[C@H]4O[C@@]5(OC(C)(CO)C[C@@H]5O)[C@H](C)[C@@]4(O)[C@]3(C)[C@@H](O)CC2[C@]1(C)C7` (stereo partly drawn), the GI50 is 0.0168 µM (active) in the test with A549; 0.0655 µM (active) in the test on COLO 205; 0.0573 µM (active) in the test with EKVX; 0.506 µM (active) with HCC 2998; 0.0583 µM (active) in the test on HCT-116; 0.121 µM in the test on HCT-15. Besides, the concentration for 50% growth inhibition (GI50) in the test with HOP-62 was 0.0109 µM (active); with K562, 0.0266 µM (active); in the test with NCI-H23, 0.0414 µM (active); with NCI-H460 it was 0.00955 µM (active); with OVCAR-4, 0.194 µM (active); with RPMI-8226, 0.00139 µM (active). In addition, the GI50 in the test with RXF 393 is 0.00178 µM (active); in the test with SK-MEL-5, 0.0873 µM (active); with SN12C it was > 3.52 µM (inactive); in the test on SNB-75 it was 0.00071 µM (active); in the test with SW-620 it was 0.0333 µM (active); in the test on UACC-257, 0.139 µM (active). In addition, the GI50 in the test with UO-31 was 0.223 µM (active).
Consider `COc1cc(C(C)c2cc3c(cc2OCCO)OCO3)cc(OC)c1OC` (stereo not drawn), for which the GI50 in the test with A549 was 2.32 µM (inactive); in the test on COLO 205 it was 1.34 µM (inactive); with EKVX it was 3.79 µM (inactive); with HCC 2998, 2.04 µM (inactive); in the test with HCT-116 it was 1.38 µM (inactive); in the test on HCT-15, 0.824 µM. Besides, the GI50 with HOP-62 is 1.74 µM (inactive); in the test with K562, 0.486 µM (active); with NCI-H23, 1.91 µM (inactive); in the test with NCI-H460, 2.2 µM (inactive); with OVCAR-4, 45.3 µM (inactive); in the test on RPMI-8226 it was 4.59 µM (inactive). For the same compound, the GI50 in the test on RXF 393 was 0.63 µM (active); in the test on SK-MEL-5, 0.667 µM (active); in the test with SN12C it was 5.82 µM (inactive); with SNB-75, 1.2 µM (inactive); with SW-620 it was 0.746 µM (active); in the test on UACC-257, 7.16 µM (inactive). The GI50 with UO-31 is 5.82 µM (inactive).
